Columns and labels:
Rattus norvegicus [1] = species: Rattus norvegicus
Description: Ability to counteract the 8-OH-DPAT (1 mg/kg sc)-induced Hypothermia in rats (n=4) and evaluated for the decrease in body temperature (degrees Celsius) at 0.1(micro mol/kg)

Rattus norvegicus [2] = species: Rattus norvegicus; remark: listed apart in the source
Description: Ability to counteract the 8-OH-DPAT (1 mg/kg sc)-induced Hypothermia in rats (n=4) and evaluated for the decrease in body temperature (degrees Celsius) at 1.0(micro mol/kg)

Rattus norvegicus [3] = species: Rattus norvegicus; remark: listed apart in the source
Description: Ability to counteract the 8-OH-DPAT (1 mg/kg sc)-induced Hypothermia in rats (n=4) and evaluated for the decrease in body temperature (degrees Celsius) at 10(micro mol/kg)

Rattus norvegicus [4] = species: Rattus norvegicus; remark: listed apart in the source
[5] = biological target: T1, 5-hydroxytryptamine receptor 1A (Rattus norvegicus, UniProt P19327); assay: biochemical
T1 sequence (P19327 whole entry): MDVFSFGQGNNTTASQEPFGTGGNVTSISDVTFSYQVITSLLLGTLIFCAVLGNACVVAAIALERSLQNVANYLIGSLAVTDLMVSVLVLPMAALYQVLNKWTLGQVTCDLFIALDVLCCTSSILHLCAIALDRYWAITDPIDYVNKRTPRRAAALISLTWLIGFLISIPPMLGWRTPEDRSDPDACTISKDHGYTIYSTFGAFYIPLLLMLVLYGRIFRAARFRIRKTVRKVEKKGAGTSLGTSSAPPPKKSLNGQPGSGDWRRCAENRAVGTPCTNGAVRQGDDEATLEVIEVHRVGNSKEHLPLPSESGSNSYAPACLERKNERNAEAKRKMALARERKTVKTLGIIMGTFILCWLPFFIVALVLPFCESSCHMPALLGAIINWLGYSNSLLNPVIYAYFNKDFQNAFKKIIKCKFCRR
Description: In vitro affinity against 5-hydroxytryptamine 1A receptor using [3H]-8-OH-DPAT in rat hippocampus

Cavia porcellus = species: Cavia porcellus; assay: tissue or blood; conditions: Ileum, read-out: pA2 (converted)
Description: Ability to antagonize the 8-OH-DPAT-induced contractions of a strip of guinea pig ileum tissue

`O=C(C1CCCCC1)N(CCN1CCN(c2ccccc2OCCF)CC1)c1ccccn1` showed a Decrease (Rattus norvegicus [1]) of 1.8 °C, a Decrease (Rattus norvegicus [2]) of 1.1 °C and a Decrease (Rattus norvegicus [3]) of 0.4 °C. The Vocalization time (Rattus norvegicus [4]) was 164 s, the IC50 [5] was 1.55 nM and the Kb (Cavia porcellus) was 3.16 nM.
`O=C(C1CCCCC1)N(CCN1CCN(c2ccccc2O)CC1)c1ccccn1` showed a Decrease (Rattus norvegicus [1]) of 0.6 °C, a Decrease (Rattus norvegicus [2]) of 0.2 °C and a Decrease (Rattus norvegicus [3]) of 0.3 °C. It also gave a Vocalization time (Rattus norvegicus [4]) of 166 s, an IC50 [5] of 2.1 nM and a Kb (Cavia porcellus) of 10 nM.
`O=C(C1CCCCC1)N(CCN1CCN(c2ccccc2OS(=O)(=O)C(F)(F)F)CC1)c1ccccn1` was tested, and the Decrease (Rattus norvegicus [1]) was 1.5 °C, the Decrease (Rattus norvegicus [2]) was 0 °C and the Decrease (Rattus norvegicus [3]) was 0.3 °C. For the same compound, the Vocalization time (Rattus norvegicus [4]) was 146 s, the IC50 [5] was 36 nM and the Kb (Cavia porcellus) was 20 nM.
`CS(=O)(=O)Oc1ccccc1N1CCN(CCN(C(=O)C2CCCCC2)c2ccccn2)CC1` showed a Decrease (Rattus norvegicus [1]) of 1.1 °C, a Decrease (Rattus norvegicus [2]) of 0.5 °C and a Decrease (Rattus norvegicus [3]) of 0.4 °C. It also gave a Vocalization time (Rattus norvegicus [4]) of 167 s, an IC50 [5] of 7.25 nM and a Kb (Cavia porcellus) of 2.51 nM.
`CCCN(CCC)C1CCc2cccc(O)c2C1` (stereo not drawn) [8-OH-DPAT] gave a Decrease (Rattus norvegicus [1]) of 2 °C and a Vocalization time (Rattus norvegicus [4]) of 4.9 s.
In the case of `O=C(C1CCCCC1)N(CCN1CCN(c2ccccc2OCCCF)CC1)c1ccccn1`, the Decrease (Rattus norvegicus [1]) is reported as 2.4 °C, the Decrease (Rattus norvegicus [2]) is reported as 0.6 °C and the Decrease (Rattus norvegicus [3]) is reported as 0.5 °C. For the same compound, the Vocalization time (Rattus norvegicus [4]) was 171 s, the IC50 [5] was 6.05 nM and the Kb (Cavia porcellus) was 5.01 nM.
`COc1ccccc1N(C)C1CCN(CCN(C(=O)C2CCCCC2)c2ccccn2)CC1` was tested, and the IC50 [5] was 1290 nM.

— ChEMBL document CHEMBL1133581, “Synthesis and in vitro and in vivo functional studies of ortho-substituted phenylpiperazine and N-substituted 4-N-(o-methoxyphenyl)aminopiperidine analogues of WAY100635” (J Med Chem, 2000)
